Measurements as given in paper PMC2713373 (Biochemistry, 2009).

Target: MtmOIV (Streptomyces argillaceus, UniProt Q194P4)
Test: X-ray crystal structure, […] Å
Format: binding
Details: non-covalently bound, IN conformation

Compound: Cc1cc2nc3c(=O)[nH]c(=O)nc-3n(C[C@H](O)[C@H](O)[C@H](O)COP(=O)(O)OP(=O)(O)OC[C@H]3O[C@@H](n4cnc5c(N)ncnc54)[C@H](O)[C@@H]3O)c2cc1C [FAD]
- X-ray crystal structure, 2.9 Å: The FAD cofactor was found non-covalently bound in the crystal structure
